Assay results as given in PMC11596563, “N-Aryl Benzimidazole and Benzotriazole Derivatives and Their Hybrids as Cytotoxic Agents: Design, Synthesis and Structure–Activity Relationship Studies” (Molecules, 2024).

Assays:
MCF-7 = assay: MTT test, cytotoxic effect; assay type: cell-based; details: Homo sapiens, MCF7, 24 h treatment, 0.1 to 100 µM, concentration that causes 50% cell death
Procedure: (§1) At the first stage of biological testing, we studied the effect of the synthesized compounds on the survival of cells of both tumoral and normal origin. […] In our work, the cytotoxic profile of the synthesized molecules was assessed using the MTT test, based on the ability of a colorless tetrazolium salt (3-[4,5-dimethylthiazol-2-yl]-2,5-diphenyltetrazolium bromide, MTT) to be reduced to colored formazan in the presence of the mitochondrial enzymes of living cells. For this purpose, a number of cell lines of tumoral origin (SH-SY5Y, A549, MCF-7 and SW-480), as well as normal origin (Hek-293), were used.
(§2) For the experiments, we used tumor cell cultures SH-SY5Y, human neuroblast-like cells, A549, human lung adenocarcinoma, MCF-7, human mammary adenocarcinoma, SW-480 and human colorectal adenocarcinoma, as well as cells of normal origin obtained from human embryonic kidneys, Hek-293.
(§3) All cells were cultured in the Dulbecco Modified Eagle’s Medium (DMEM) with a high glucose content, 10% fetal bovine serum and 1% penicillin-streptomycin as an antibiotic, in a moist incubator with 5% CO2 at 37°C.
(§4) To measure cellular metabolic activity, a colorimetric analysis was performed using the MTT reagent (3-(4,5–dimethylthiazol-2-yl)-2,5-diphenyltetrazolium bromide), which is an inhibitor of viable cells [73, 74].
(§5) • Briefly, cells in the logarithmic growth phase were digested and resuspended to adjust the cell density. The cells were then seeded in 96-well plates at a density of 10,000 cells per well. After 24 h of the incubation of the cells under the standard conditions described above (for the purpose of cell adhesion), the cells were treated with the synthesized compounds at different concentrations (0.1 to 100 µM) or a vehicle alone as a control (1% DMSO) for 24 h. After the incubation time of the cells with synthesized compounds, 5 mg/mL of MTT was added to the cells and incubated for 2 h at 37 °C. Next, the supernatant was discarded; after that, the formazan crystals were dissolved in a DMSO and the absorbance of each well was measured at 570 nm using a multifunctional microplate reader, Cytation3 (Biotech Tools Inc., Winooski, USA).

[1] = MTT test, cytotoxic effect on cells of normal origin; assay type: cell-based, human; details: human, Hek-293 cells (normal origin), 24 h treatment, 0.1 to 100 µM, normal cells, concentration that causes 50% cell death
Procedure: as §1, §2, §3, §4, §5

Hek-293 = assay: as above; assay type: cell-based, human; details: Hek-293
Procedure: as §1, §2, §3, §4, §5

[2] = test system: Fe(II)-induced lipid peroxidation (LPO) of rat brain homogenate; assay: Fe(II)-induced lipid peroxidation, modified TBARS test; assay type: biochemical; details: Fe(II) 500 μM, rat brain homogenate 2 mg/mL; for IC50: 1 to 300 μM, read-out: IC50 of the lipid peroxidation inhibitory effect
Procedure: In our work, the antioxidant status of the compounds was determined by their ability to influence the process of Fe(II)-induced lipid peroxidation (LPO) of rat brain homogenate (2 mg/mL). The effect of the substances on LPO was studied using a modified version of the TBA test in a plate format. This test is based on the reaction of 2-thiobarbituric acid with intermediate LPO products, resulting in the formation of a colored trimethine complex, the main role in the formation of which belongs to malondialdehyde. […] This was expressed in a decrease in the level of malondialdehyde in the system by 70, 79 and 71%, respectively, tending to the values of the well-known antioxidant Trolox. Additionally, the IC50 values of the lipid peroxidation inhibitory effect were calculated for these molecules, the values of which are presented in Figure 2B.
To obtain rat brain homogenate, an animal previously anesthetized in a CO2 chamber was decapitated using a guillotine. The brain was homogenized in a buffer containing KCl (120 mM) and HEPES (20 mM), pH = 7.4 at 4 ° C and centrifuged at 1500 g to obtain a supernatant.
The intensity of the lipid peroxidation of the rat brain homogenate was evaluated using a modified TBARS test. […] In the wells of the negative control, the Fe(II) was replaced with water; in samples with a positive control, a solvent was introduced instead of the studied compounds.
At the end of incubation, a TBA reagent ([…] thiobartituric and 1% trichloroacetic acids dissolved in 0.25 N HCl) was added to each well and heated at 90 °C for 90 min.

A549 = assay: MTT test, cytotoxic effect; assay type: cell-based; details: Homo sapiens, 24 h treatment, 0.1 to 100 µM, concentration that causes 50% cell death
Procedure: as §1, §2, §3, §4, §5

A549 cells = assay: Wound-healing assay (scratch test); assay type: cell-based, human; details: 1 μM
From the text: It is also well known that migration and proliferation of cancer cells are key processes involved in the metastatic cascade of malignant neoplasms. In turn, the ability of therapeutic agents to inhibit these processes is considered a promising property of antitumor agents. In this regard, in order to assess the possible antimetastatic potential of cytotoxic diphenylamines 6b, c and d, we analyzed the effect of the substances on the migration and proliferation of tumor cells A549 in a scratch test.
Based on a preliminary series of experiments, 1 μM was chosen as the concentration used in this test, excluding the intrinsic cytotoxic effect of the substances. […] Thus, the data obtained 24 h after the damage was applied allowed us to evaluate the migration capacity of the cells, minimizing the contribution of cell proliferation.
The migration activity of A549 cells was determined by the wound-healing assay (scratch test). To do this, cells (15,000 cells per well) were seeded in a 96-well plate and cultured under the standard conditions described above. After 24 h of incubation, when the cells became 90% confluent, the medium was selected and an identical scratch wound across the center of each well was made by a 200 µL pipette tip.
To remove detached cells, the cell monolayer was washed twice with PBS; after that, the growth media and test compounds at 1 µM (or 1% DMSO as a solvent) were added to each well. A phase contrast microscope at a ×40 magnification was used to take photomicrographs after making the wound and then 24 h, 48 h and 72 h later.
The analysis of the obtained images was calculated using the open-source program ImageJ [80] and a special module: Wound_healing_size_tool.

SH-SY5Y = assay: cells; details: Homo sapiens, 24 h, read-out: IC50 of the cytotoxic effect, SH-SY5Y
Procedure: as §1, §2, §3, §4, §5

SW-480 = assay: MTT test, cytotoxic effect; assay type: cell-based; details: Homo sapiens, SW480, 24 h treatment, 0.1 to 100 µM, concentration that causes 50% cell death
Procedure: as §1, §2, §3, §4, §5

| SMILES | IC50 [2] [µM] | melting point [°C] | IC50 (MCF-7) [µM] | IC50 at 24 h [1] [µM] | cytotoxic effect on cell line of normal origin (Hek-293) | decrease in the level of malondialdehyde ([2]; compounds at 100 μM) [%] | IC50 (A549) [µM] | migration capacity, decrease in the scratch width vs control (A549 cells; 24 h after the damage) | ability to suppress the migratory activity of A549 tumor cells (A549 cells; conclusion) | IC50 (SH-SY5Y) [µM] | IC50 (SW-480) [µM] |
| --- | --- | --- | --- | --- | --- | --- | --- | --- | --- | --- | --- |
| CCOC(=O)c1ccc(Nc2cc(C(F)(F)F)ccc2-n2nnc3ccccc32)c(N)c1 [6c, Ethyl 3-amino-4-[2-(1H-benzotriazol-1-yl)-5-(trifluoromethyl)anilino]benzoate] | 1.11 ± 0.13 | 178 to 181 | 77.05 ± 0.67 | ≥ 100 | did not exert a cytotoxic effect | 79 | 37.68 ± 0.2 | did not find any differences | failed to demonstrate the ability to suppress the migratory activity | 20.94 ± 0.13 | ≥ 100 |
| Cc1c(C)c2c(c(C)c1O)CCC(C)(C(=O)O)O2 (centres unmarked) [Trolox, reference compound] | 32.45 ± 0.24 |  |  |  |  |  |  |  |  |  |  |
| FC(F)(F)c1ccc(-n2nnc3ccccc32)c(-n2cnc3cc(C(F)(F)F)ccc32)c1 [7a, 1-{4-(trifluoromethyl)-2-[5-(trifluoromethyl)-1H-benzimidazol-1-yl]phenyl}-1H-benzotriazole] |  | 124 to 128 | ≥ 100 | ≥ 100 |  |  | ≥ 100 |  |  | ≥ 100 | ≥ 100 |
| Nc1cc(C(F)(F)F)ccc1-n1nnc2ccccc21 [4c, 2-(1H-benzotriazol-1-yl)-5-(trifluoromethyl)aniline] |  | 136 to 139 | 75.2 ± 1.43 | ≥ 100 | without affecting the survival |  | 65.38 ± 0.17 |  |  | 39.59 ± 0.05 | ≥ 100 |

The next lines start with results.

| IC50 [2] [µM] | melting point [°C] | SMILES | IC50 (MCF-7) [µM] | IC50 at 24 h [1] [µM] | cytotoxic effect on cell line of normal origin (Hek-293) | decrease in the level of malondialdehyde ([2]; compounds at 100 μM) [%] | IC50 (A549) [µM] | migration capacity, decrease in the scratch width vs control (A549 cells; 24 h after the damage) | ability to suppress the migratory activity of A549 tumor cells (A549 cells; conclusion) | IC50 (SH-SY5Y) [µM] | IC50 (SW-480) [µM] |
| --- | --- | --- | --- | --- | --- | --- | --- | --- | --- | --- | --- |
|  | 132 to 136 | CCOC(=O)c1ccc(-n2nnc3ccccc32)c(N)c1 [4d, Ethyl 3-amino-4-(1H-benzotriazol-1-yl)benzoate] | ≥ 100 | ≥ 100 |  |  | ≥ 100 |  |  | ≥ 100 | ≥ 100 |
|  | 136 to 141 | FC(F)(F)c1ccc2c(c1)ncn2-c1cc(Cl)ccc1-n1nnc2ccccc21 [7c, 1-{4-Chloro-2-[5-(trifluoromethyl)-1H-benzimidazol-1-yl]phenyl}-1H-benzotriazole] | 45.12 ± 0.22 | 36.27 ± 0.14 |  |  | ≥ 100 |  |  | ≥ 100 | ≥ 100 |
|  | 153 to 156 | ONc1cc(C(F)(F)F)ccc1-n1cnc2ccccc21 [8a, N-(2-(1H-benzimidazol-1-yl)-5-(trifluoromethyl)phenyl)hydroxylamine] |  |  |  |  |  |  |  |  |  |
|  | 130 to 132 | O=[N+]([O-])c1cc(C(F)(F)F)ccc1-n1cnc2ccccc21 [3a, 1-(2-Nitro-4-(trifluoromethyl)phenyl)-1H-benzimidazole] | 92.4 ± 1.4 | 77.3 ± 2.12 |  |  | ≥ 100 |  |  | 62.2 ± 0.11 | ≥ 100 |
|  | 133 to 136 | O=[N+]([O-])c1cc(C(F)(F)F)ccc1-n1nnc2ccccc21 [3c, 1-[2-Nitro-4-(trifluoromethyl)phenyl]-1H-benzotriazole] | ≥ 100 | ≥ 100 |  |  | ≥ 100 |  |  | ≥ 100 | ≥ 100 |
|  | 102 to 105 | O=[N+]([O-])c1cc(Cl)ccc1-n1cnc2ccccc21 [3b, 1-(4-Chloro-2-nitrophenyl)-1H-benzimidazole] | ≥ 100 | ≥ 100 |  |  | ≥ 100 |  |  | ≥ 100 | ≥ 100 |
